Test systems include OVCAR-3 ovarian; A498 renal; OVCAR-8 ovarian; IGROV1 ovarian; MDA-MB-231 breast; RXF 393 renal; SK-MEL-2 melanoma; LOX IMVI melanoma; U251 CNS; SNB-75 CNS; HL-60(TB) leukemia; SF-539 CNS.
Holding throughout (assay): NCI anticancer screen, dose series, 48 h

The structures appear in SMILES notation.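 Interpolation was linear, between the two tested concentrations surrounding the appropriate level; five concentrations were tested over 48 hours in 96-well plates. TGI denotes the concentration required for complete inhibition of growth.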 Bounds are passed on as bounds.

In the case of `CN1C/C(=C\c2cccs2)C(=O)/C(=C/c2cccs2)C1`, the TGI with OVCAR-3 ovarian is over 100 µM; in the test with A498 renal, 71.2 µM; with OVCAR-8 ovarian, 74 µM; with IGROV1 ovarian, 92.2 µM; in the test with MDA-MB-231 breast, 48.3 µM; in the test on RXF 393 renal, 54.8 µM. Moreover, the figures for the TGI with SK-MEL-2 melanoma, with LOX IMVI melanoma and in the test with U251 CNS were 48.9 µM, 41 µM and 30.7 µM, respectively.
As for `COC(=O)/C=C\C(C#N)(C#N)N=Cc1ccc(Br)cc1`, the TGI in the test with SNB-75 CNS stood at 28.8 µM; in the test on HL-60(TB) leukemia, 1.27 µM; with OVCAR-3 ovarian it was 24.9 µM; with A498 renal it was 29.8 µM; in the test with OVCAR-8 ovarian it was 21.5 µM; in the test with IGROV1 ovarian, 37 µM. Moreover, the TGI stood at 8.48 µM with MDA-MB-231 breast; 17.8 µM in the test on RXF 393 renal; 44 µM in the test on SK-MEL-2 melanoma; 5.26 µM in the test with LOX IMVI melanoma; 33.3 µM in the test on U251 CNS.
`COC(=O)C(CNC(=O)/C=C/c1ccc(OC(C)=O)c(OC(C)=O)c1)NC(=O)/C=C/c1ccc(OC(C)=O)c(OC(C)=O)c1` (stereo unspecified): the TGI with OVCAR-3 ovarian, in the test on A498 renal, in the test with OVCAR-8 ovarian, with IGROV1 ovarian, in the test with MDA-MB-231 breast and in the test with RXF 393 renal was over 100 µM each time. Besides, the TGI in the test with SK-MEL-2 melanoma, in the test with LOX IMVI melanoma, in the test with SF-539 CNS and in the test on U251 CNS was over 100 µM in each case.
Turning to `ClC1=C(Cl)C2OC3C=CCC3OC2C(Cl)=C1Cl` (stereo unspecified), the TGI with HL-60(TB) leukemia, in the test with OVCAR-3 ovarian, in the test on A498 renal, in the test with OVCAR-8 ovarian, in the test with IGROV1 ovarian and in the test on MDA-MB-231 breast was over 100 µM in each case. Also, the TGI in the test with RXF 393 renal is over 100 µM; in the test on SK-MEL-2 melanoma, 48.1 µM; in the test with LOX IMVI melanoma, over 100 µM; in the test on SF-539 CNS it was over 100 µM; in the test with U251 CNS, over 100 µM.
With `O=C1c2cc3ncsc3cc2C(=O)c2c(O)ccc(O)c21`, the TGI with SNB-75 CNS, in the test with OVCAR-3 ovarian, with A498 renal, in the test with OVCAR-8 ovarian, in the test on IGROV1 ovarian and with MDA-MB-231 breast was over 100 µM in each case. For the same compound, the TGI in the test with RXF 393 renal, with SK-MEL-2 melanoma, with LOX IMVI melanoma, with SF-539 CNS and in the test on U251 CNS was over 100 µM throughout.
For the compound `Nc1c(C(=O)O)nnc2cc(Cl)ccc12`, the TGI with SNB-75 CNS, in the test with HL-60(TB) leukemia, in the test with OVCAR-3 ovarian, with A498 renal, in the test with OVCAR-8 ovarian and with IGROV1 ovarian was over 100 µM each time. Moreover, the TGI with MDA-MB-231 breast, in the test with SK-MEL-2 melanoma, with LOX IMVI melanoma, with SF-539 CNS and in the test with U251 CNS was over 100 µM throughout.
On to `Clc1ncnc2c1nc(C#Cc1ccccc1)n2C1CCCCO1` (stereo unspecified), for which the TGI in the test on SNB-75 CNS is 7.78 µM; in the test with HL-60(TB) leukemia it was 6.94 µM; in the test with OVCAR-3 ovarian, 2.92 µM; in the test on A498 renal, 8.84 µM; in the test on OVCAR-8 ovarian it was 12.4 µM; in the test on MDA-MB-231 breast, 12.7 µM. Besides, the TGI is 6.49 µM in the test on SK-MEL-2 melanoma, 4.79 µM with LOX IMVI melanoma, 4.28 µM with SF-539 CNS and 4.29 µM with U251 CNS.
Consider `CCOC(=O)C1=C(C)N(Cc2ccccc2)C2(O)C(OC)CC(=O)C3C(=O)N(c4ccccc4)C(=O)C132` (stereo unspecified), for which the TGI is over 100 µM with HL-60(TB) leukemia; over 100 µM in the test on OVCAR-3 ovarian; 50.6 µM in the test with A498 renal; 31.9 µM with OVCAR-8 ovarian; 37.6 µM with IGROV1 ovarian; 77.2 µM in the test on MDA-MB-231 breast. The TGI in the test with RXF 393 renal was 94.1 µM; in the test on SK-MEL-2 melanoma it was 59.1 µM; in the test on LOX IMVI melanoma, over 100 µM; in the test on SF-539 CNS it was 48.6 µM; in the test on U251 CNS, over 100 µM.
As for `Cc1oc2nc(N(C)C)n3cnnc3c2c1C`, the TGI in the test on SNB-75 CNS, in the test with HL-60(TB) leukemia, with OVCAR-3 ovarian, with A498 renal, in the test with OVCAR-8 ovarian and in the test on IGROV1 ovarian was over 100 µM throughout. The TGI in the test on MDA-MB-231 breast, in the test with RXF 393 renal, with SK-MEL-2 melanoma, with SF-539 CNS and in the test on U251 CNS was over 100 µM throughout.
On to `O=C(CN1CCN(c2ccccn2)CC1)N1CCCn2c1nc1ccccc1c2=O`, for which the TGI in the test with SNB-75 CNS, with HL-60(TB) leukemia, in the test with OVCAR-3 ovarian, in the test with A498 renal, in the test on OVCAR-8 ovarian and in the test on IGROV1 ovarian was over 100 µM each time. Further, the TGI in the test on MDA-MB-231 breast, with SK-MEL-2 melanoma, with LOX IMVI melanoma, with SF-539 CNS and in the test on U251 CNS was over 100 µM in each case.
As for `Cc1cc(OCc2nnc3n2N=C(c2cc(F)c(Cl)cc2Cl)/C(=C/c2ccc(-c4ccc(Cl)cc4)o2)S3)ccc1Cl`, the TGI with HL-60(TB) leukemia, with OVCAR-3 ovarian, in the test with A498 renal, in the test on OVCAR-8 ovarian, in the test with IGROV1 ovarian and with MDA-MB-231 breast was over 50 µM throughout. In addition, the TGI in the test on RXF 393 renal, with SK-MEL-2 melanoma, with LOX IMVI melanoma and in the test with U251 CNS was over 50 µM in each case.
On to `NNS(=O)(=O)c1ccc(/C=C2\NC(=O)NC2=O)cc1`, for which the TGI in the test with SNB-75 CNS, in the test on HL-60(TB) leukemia, in the test on OVCAR-3 ovarian, with A498 renal, with OVCAR-8 ovarian and with IGROV1 ovarian was over 100 µM throughout. For the same compound, the TGI with MDA-MB-231 breast, in the test on SK-MEL-2 melanoma, in the test on LOX IMVI melanoma and in the test on U251 CNS was over 100 µM in each case.
Regarding `N#Cc1c(N2CCCC2)nsc1Nc1ccccc1`, the TGI with SNB-75 CNS, with HL-60(TB) leukemia, in the test with A498 renal, in the test with OVCAR-8 ovarian, in the test with IGROV1 ovarian and in the test with MDA-MB-231 breast was over 100 µM each time. Besides, the TGI with RXF 393 renal, with SK-MEL-2 melanoma, in the test with LOX IMVI melanoma and with SF-539 CNS was over 100 µM throughout.

Values taken from PubChem BioAssay (NCI).
